Laboratory results published in patent US12257243B2, “5-hydroxy-7-oxabicyclo[2.2.1]heptane-2-carboxamide derivatives for inducing chondrogenesis for treating joint damage” (NOVARTIS AG, priority 2018, dated 2025).
pIC50: −log10 of the molar value. Where two headings read alike, the source gives them in different places.

Biological target: ALP in normal human articular chondrocytes (NHACs)
Assay: Alkaline Phosphatase (ALP) activity assay (staining and quantitation) in NHACs, prevention of chondrocyte hypertrophy
Assay type: cell-based
Details: human IL-1 beta 10 ng/mL, 12 days; for pIC50: Fast Blue RR staining, high content imaging, read-out: ALP in NHAC IC50; for ALP in NHAC (% Efficacy) / Emax: value in parentheses; for Emax: read-out: ALP in NHAC (% Efficacy)
Description: The compounds of the present invention were evaluated in the Alkaline Phosphatase (ALP) activity assay to determine the ability of the compounds to prevent chondrocyte hypertrophy in normal human articular chondrocytes (NHACs).
Normal human articular chondrocytes (NHACs) were purchased from PromoCell (Heidelberg, Germany) and grown in Chondrocyte Growth Medium (CGM; Lonza, Walkersville, Md.).
NHACs were expanded in Chondrocyte Growth Medium (CGM) from Lonza until they reached a 60-80% confluency. To initiate differentiation, 7,500 cells were plated/well with indicated test compound dose in 384-well Cell Carrier Ultra plates (Perkin Elmer) with DMEM (SH30022—HyClone) containing 10% FBS (35-015-CV—Corning), 1% Pen/Strep antibiotics (SV30010—HyClone), and 1% Normocin (50 mg/mL—InvivoGen). Cells with test compounds were incubated at 37° C., 5% CO2 for 5 hours and then added human IL-1 beta (AF-200-1B—Peprotech) to each well at a final concentration of 10 ng/mL and incubated at 37° C., 5% CO2 for 12 days.
To detect the presence of hypertrophic cells, NHACs were fixed with 4% paraformaldehyde and Hoechst 33342 (Invitrogen) dye for 30 minutes, rinsed in PBS, then stained with Fast Blue RR Salt (F0500—Sigma) with Naphthol AS-MX Phosphate Alkaline Solution, 0.25% (855—Sigma-Aldrich).
The staining was imaged by fluorescent microscopy, using the 561 nm wavelength, and/or quantified by high content imaging with the Image press Confocal (Molecular Devices, Sunnyvale, Calif.). Data analyses were performed with a customized multiwavelength cell-scoring application.

Cn1cc([C@H]2[C@H]3O[C@H](C[C@@H]3O)[C@@H]2C(=O)Nc2cc(C(F)(F)F)ccc2C#N)c(C(F)(F)F)n1 (single isomer, unassigned) [Example 49a, (1R,2R,3S,4R,5N-(2-cyano-5-(trifluoromethyl)phenyl)-5-hydroxy-3-(1-methyl-3-(trifluoromethyl)-1H-pyrazol-4-yl)-7-oxabicyclo[2.2.1]heptane-2-carboxamide or (1S,2S,3R,4S,5R)—N-(2-cyano-5-(trifluoromethyl)phenyl)-5-hydroxy-3-(1-methyl-3-(trifluoromethyl)-1H-pyrazol-4-yl)-7-oxabicyclo[2.2.1]heptane-2-carboxamide]
pIC50: 5.72 | ALP in NHAC (% Efficacy): 101%

Cn1nc(C(F)(F)F)cc1[C@H]1[C@H]2O[C@H](C[C@@H]2O)[C@@H]1C(=O)Nc1cc(C(F)(F)F)ccc1C#N (single isomer, unassigned) [Example 72b, (1R,2R,3S,4R,5S)—N-(2-cyano-5-(trifluoromethyl)phenyl)-5-hydroxy-3-(1-methyl-3-(trifluoromethyl)-1H-pyrazol-5-yl)-7-oxabicyclo[2.2.1]heptane-2-carboxamide or (1S,2S,3R,4S,5R)—N-(2-cyano-5-(trifluoromethyl)phenyl)-5-hydroxy-3-(1-methyl-3-(trifluoromethyl)-1-pyrazol-5-yl)-7-oxabicyclo[2.2.1]heptane-2-carboxamide]
pIC50 (listed as 72?): 5.74 | ALP in NHAC (% Efficacy) (listed as 72?): 88%

COc1ccc(C(F)(F)F)cc1NC(=O)[C@H]1[C@H](c2cn(C)nc2C(F)(F)F)[C@@H]2O[C@H]1C[C@H]2O (single isomer, unassigned) [Example 33a, (1R,2R,3S,4R,5S)-5-hydroxy-N-(2-methoxy-5-trifluoromethyl)phenyl)-3-(1-methyl-3-(trifluoromethyl)-1H-pyrazol-4-L)-7-oxabicyclo[2.2.1]heptane-2-carboxamide or (1S,2S,3R,4S,5R)-5-hydroxy-N-(2-methoxy-5-(trifluoromethyl)phenyl)-3-(1-methyl-3-(trifluoromethyl)-1H-pyrazol-4-L)-7-oxabicyclo[2.2.1]heptane-2-carboxamide]
pIC50: 5.18 | ALP in NHAC (% Efficacy): 79%

Cc1ccc(NC(=O)[C@@H]2[C@@H](c3cn(C(C)C)nc3C(F)(F)F)[C@H]3O[C@@H]2C[C@@H]3O)cc1C(F)(F)F (racemic) [Example 89, rac-(1R,2R,3S,4R,5S)-5-hydroxy-3-(1-isopropyl-3-trifluoromethyl)-1H-pyrazol-4-yl)-N-(4-methyl-3-(trifluoromethyl)phenyl)-7-oxabicyclo[2.2.1]heptane-2-carboxamide]
pIC50 (Chondrocyte, 288 h): 4.72 | Emax (Chondrocyte, 288 h): 40%

O=C(Nc1cccc(C(F)(F)F)c1)[C@@H]1[C@@H](c2cncc(C(F)(F)F)c2)[C@H]2O[C@@H]1C[C@@H]2O (racemic) [Example 81, rac-(1R,2R,3S,4R,5S)-5-hydroxy-N-(3-(trifluoromethyl)phenyl)-3-(5-(trifluoromethyl)pyridin-3-yl)-7-oxabicyclo[2.2.1]heptane-2-carboxamide]
pIC50 (Chondrocyte, 288 h): 4.72 | Emax (Chondrocyte, 288 h): 59%

Cc1cc(NC(=O)[C@@H]2[C@@H](c3cn(C)nc3C(F)(F)F)[C@H]3O[C@@H]2C[C@@H]3O)cc(C(F)(F)F)c1 (racemic) [Example 30, rac-(1R,2R,3S,4R,5)-5-hydroxy-3-(1-methyl-3-(trifluoromethyl)-1H-pyrazol-4-yl)-N-(3-methyl-5-(trifluoromethyl)phenyl)-7-oxabicyclo[2.2.1]heptane-2-carboxamide]
pIC50 (Chondrocyte, 288 h): 5.14 | Emax (Chondrocyte, 288 h): 81%

Cc1cc(NC(=O)[C@@H]2[C@@H](c3cc(C(F)(F)F)nn3C)[C@H]3O[C@@H]2C[C@@H]3O)cc(C(F)(F)F)c1 (racemic) [Example 71, rac-(1R,2R,3S,4R,5S)-5-hydroxy-3-(1-methyl-3-(trifluoromethyl)-1H-pyrazol-5-yl)-N-(3-methyl-5-(trifluoromethyl)phenyl)-7-oxabicyclo[2.2.1]heptane-2-carboxamide]
pIC50 (Chondrocyte, 288 h): < 4.52 | Emax (Chondrocyte, 288 h): 29%

Cn1cc([C@H]2[C@H]3O[C@H](C[C@@H]3O)[C@@H]2C(=O)Nc2cccc(C(F)(F)F)c2)c(C(F)(F)F)n1 (single isomer, unassigned) [Example 32b, (1R,2R,3S,4R,5S)-5-hydroxy-3-(1-methyl-3-(trifluoromethyl)-1H-pyrazol-4-yl)-N-(3-(trifluoromethyl)phenyl)-7-oxabicyclo[2.2.1]heptane-2-carboxamide or (1S,2S,3R,4S,5R)-5-hydroxy-3-(1-methyl-3-(trifluoromethyl)-1H-pyrazol-4-yl)-N-(3-(trifluoromethyl)phenyl)-7-oxabicyclo[2.2.1]heptane-2-carboxamide]
pIC50: 4.80 | ALP in NHAC (% Efficacy): 109%

O=C(Nc1ccc(C(F)(F)F)c(Cl)c1)[C@@H]1[C@@H](c2cccc(C(F)(F)F)c2)[C@H]2O[C@@H]1C[C@@H]2O (racemic) [Example 2, rac-(1R,2R,3S,4R,5S)—N-(3-chloro-4-(trifluoromethylphenyl)-5-hydroxy-3-(3-(trifluoromethyl)phenyl)-7-oxabicyclo[2.2.1]heptane-2-carboxamide]
pIC50 (Chondrocyte, 288 h): 5.08 | Emax (Chondrocyte, 288 h): 102%

Cn1cc([C@H]2[C@H]3O[C@H](C[C@@H]3O)[C@@H]2C(=O)Nc2cc(C(F)(F)F)cc(Cl)n2)c(C(F)(F)F)n1 (racemic) [Example 35, rac-(1R,2R,3S,4R,5S)—N-(6-chloro-4-(trifluoromethyl)pyridin-2-yl)-5-hydroxy-3-(1-methyl-3-(trifluoromethyl)-1H-pyrazol-4-yl)-7-oxabicyclo[2.2.1]heptane-2-carboxamide]
pIC50 (Chondrocyte, 288 h): 5.01 | Emax (Chondrocyte, 288 h): 83%

Cn1cc([C@H]2[C@H]3O[C@H](C[C@@H]3O)[C@@H]2C(=O)Nc2ccc(Cl)c(C(F)(F)F)c2)c(C(F)(F)F)n1 (racemic) [Example 53, rac-(1R,2R,3S,4R,5S)—N-(4-chloro-3-(trifluoromethyl)phenyl)-5-hydroxy-3-(1-methyl-3-(trifluoromethyl)-1H-pyrazol-4-yl)-7-oxabicyclo[2.2.1]heptane-2-carboxamide]
pIC50 (Chondrocyte, 288 h): 5.14 | Emax (Chondrocyte, 288 h): 86%

Cc1cc(NC(=O)[C@@H]2[C@@H](c3ccnc(C(F)(F)F)c3)[C@H]3O[C@@H]2C[C@@H]3O)cc(C(F)(F)F)c1 (racemic) [Example 65, rac-(1R,2R,3S,4R,5S)-5-hydroxy-N-(3-methyl-5-(trifluoromethyl)phenyl)-3-(2-(trifluoromethyl)pyridin-4-yl)-7-oxabicyclo[2.2.1]heptane-2-carboxamide]
pIC50 (Chondrocyte, 288 h): 4.70 | Emax (Chondrocyte, 288 h): 57%

Cn1cc([C@H]2[C@H]3O[C@H](C[C@@H]3O)[C@@H]2C(=O)Nc2cc(C(F)(F)F)c(Cl)cn2)c(C(F)(F)F)n1 (single isomer, unassigned) [Example 36a, (1R 2R,3S,4R,5S)—N-(5-chloro-4-(trifluoromethyl)pyridin-2-yl)-5-hydroxy-3-(1-methyl-3-(trifluoromethyl)-1H-pyrazol-4-yl)-7-oxabicyclo[2.2.1]heptane-2-carboxamide or (1S,2S,3R,4S,5R)—N-(5-chloro-4-(trifluoromethyl)pyridin-2-yl)-5-hydroxy-3-(1-methyl-3-(trifluoromethyl)-1H-pyrazol-4-yl)-7-oxabicyclo[2.2.1]heptane-2-carboxamide]
pIC50: 5.03 | ALP in NHAC (% Efficacy): 95%

O=C(Nc1ccc(C(F)(F)F)c(F)c1)[C@@H]1[C@@H](c2cccc(C(F)(F)F)c2)[C@H]2O[C@@H]1C[C@@H]2O (racemic) [Example 3, rac-(1R,2R,3S,4R,5S)—N-(3-fluoro-4-(trifluoromethyl)phenyl)-5-hydroxy-3-(3-(trifluoromethyl)phenyl)-7-oxabicyclo[2.2.1]heptane-2-carboxamide]
pIC50 (Chondrocyte, 288 h): 4.92 | Emax (Chondrocyte, 288 h): 77%

Cc1ccc(NC(=O)[C@@H]2[C@@H](c3cccc(C(F)(F)F)c3)[C@H]3O[C@@H]2C[C@@H]3O)cc1C(F)(F)F (racemic) [Example 12, rac-(1R,2R,3S,4R,5S)-5-hydroxy-N-(4-methyl-3-trifluoromethylphenyl)-3-(3-(trifluoromethyl)phenyl)-7-oxabicyclo[2.2.1]heptane-2-carboxamide]
pIC50 (Chondrocyte, 288 h): 5.01 | Emax (Chondrocyte, 288 h): 102%

O=C(Nc1cccc(C(F)(F)F)c1)[C@@H]1[C@@H](c2cccc(C(F)(F)F)c2)[C@H]2O[C@@H]1C[C@@H]2O (racemic) [Example 10, rac-(1R,2R,3S,4R,5S)-5-hydroxy-N,3-bis(3-(trifluoromethylphenyl)-7-oxabicyclo[2.2.1]heptane-2-carboxamide]
pIC50 (Chondrocyte, 288 h): 4.92 | Emax (Chondrocyte, 288 h): 108%
